Columns and labels:
Assay type in all cases: in vivo
[1] = tested on: barnyardgrass (Echinochloa crus-galli); assay: Test G Pre-Emergence Protocol; conditions: Echinochloa crus-galli, pre-emergence, 312 h, evaluated after 13 days; for pest or weed control at 15.625 g/ha: 15.625 g ai/ha; for pest or weed control at 15.625 g/ha / pest or weed control at 250 g/ha: read-out: Barnyardgrass damage rating (100=total damage to plant; 0=no damage to plant); for pest or weed control at 62.5 g/ha: 62.5 g ai/ha, 100=total damage to plant, 0=no damage to plant, read-out: Barnyardgrass damage rating; for pest or weed control at 250 g/ha: 250 g ai/ha
Outline: (§1)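 Pots of seeds in standard soil were grown for one day in a glasshouse (24/16 °C day/night, 14 h light, 65% humidity), then sprayed with compound in acetone/water 50:50 with 0.5% Tween 20 at 15.625, 62.5 or 250 g/ha. Damage was scored after 13 days on a 0 (none) to 100 (total) scale.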

corn (Zea mays) [2] = assay: Test G Pre-Emergence Protocol; conditions: Zea mays, pre-emergence, 312 h, evaluated after 13 days; for plant injury at 15.625 g/ha: 15.625 g ai/ha; for plant injury at 15.625 g/ha / plant injury at 250 g/ha: read-out: Corn damage rating (100=total damage to plant; 0=no damage to plant); for plant injury at 62.5 g/ha: 62.5 g ai/ha, 100=total damage to plant, 0=no damage to plant, read-out: Corn damage rating; for plant injury at 250 g/ha: 250 g ai/ha
Outline: as §1

[3] = tested on: giant foxtail (Setaria faberi); assay: Test G Pre-Emergence Protocol; conditions: Setaria faberi, pre-emergence, 312 h, evaluated after 13 days; for pest or weed control at 15.625 g/ha: 15.625 g ai/ha; for pest or weed control at 15.625 g/ha / pest or weed control at 250 g/ha: read-out: Foxtail, Giant damage rating (100=total damage to plant; 0=no damage to plant); for pest or weed control at 62.5 g/ha: 62.5 g ai/ha, 100=total damage to plant, 0=no damage to plant, read-out: Foxtail, Giant damage rating; for pest or weed control at 250 g/ha: 250 g ai/ha
Outline: as §1

[4] = tested on: ivy-leaved morning glory (Ipomoea hederacea); assay: Test G Pre-Emergence Protocol; conditions: Ipomoea, pre-emergence, 312 h, evaluated after 13 days; for pest or weed control at 15.625 g/ha: 15.625 g ai/ha; for pest or weed control at 15.625 g/ha / pest or weed control at 250 g/ha: read-out: Morningglory, Ivy-leaved damage rating (100=total damage to plant; 0=no damage to plant); for pest or weed control at 62.5 g/ha: 62.5 g ai/ha, 100=total damage to plant, 0=no damage to plant, read-out: Morningglory, Ivy-leaved damage rating; for pest or weed control at 250 g/ha: 250 g ai/ha
Outline: as §1

[5] = tested on: redroot pigweed (Amaranthus retroflexus); assay: Test G Pre-Emergence Protocol; conditions: Amaranthus retroflexus, pre-emergence, 312 h, evaluated after 13 days; for pest or weed control at 15.625 g/ha: 15.625 g ai/ha; for pest or weed control at 15.625 g/ha / pest or weed control at 250 g/ha: read-out: Pigweed, Redroot damage rating (100=total damage to plant; 0=no damage to plant); for pest or weed control at 62.5 g/ha: 62.5 g ai/ha, 100=total damage to plant, 0=no damage to plant, read-out: Pigweed, Redroot damage rating; for pest or weed control at 250 g/ha: 250 g ai/ha
Outline: as §1

[6] = tested on: velvetleaf (Abutilon theophrasti); assay: Test G Pre-Emergence Protocol; conditions: Abutilon theophrasti, pre-emergence, 312 h, evaluated after 13 days; for pest or weed control at 15.625 g/ha: 15.625 g ai/ha; for pest or weed control at 15.625 g/ha / pest or weed control at 250 g/ha: read-out: Velvetleaf damage rating (100=total damage to plant; 0=no damage to plant); for pest or weed control at 62.5 g/ha: 62.5 g ai/ha, 100=total damage to plant, 0=no damage to plant, read-out: Velvetleaf damage rating; for pest or weed control at 250 g/ha: 250 g ai/ha
Outline: as §1

[7] = tested on: barnyardgrass (Echinochloa crus-galli); assay: Test G Post-Emergence Protocol; conditions: Echinochloa crus-galli, post-emergence, 312 h, read-out: Barnyardgrass damage rating; for pest or weed control at 15.625 g/ha: 15.625 g ai/ha, evaluated after 13 days (100=total damage to plant; 0=no damage to plant); for pest or weed control at 62.5 g/ha: 62.5 g ai/ha; for pest or weed control at 62.5 g/ha / pest or weed control at 250 g/ha: evaluated after 13 days, 100=total damage to plant, 0=no damage to plant; for pest or weed control at 250 g/ha: 250 g ai/ha
Outline: (§2)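 Pot-grown seedlings, 8 days old, raised in a glasshouse at 24/16 °C day/night with 14 h light and 65% humidity, were sprayed post-emergence with test compound in acetone/water (50:50) plus 0.5% Tween 20 at 15.625, 62.5 or 250 g/ha. Damage was scored visually 13 days later on a 0–100 scale (100 = total damage).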

corn (Zea mays) [8] = assay: Test G Post-Emergence Protocol; conditions: Zea mays, post-emergence, 312 h, read-out: Corn damage rating; for plant injury at 15.625 g/ha: 15.625 g ai/ha, evaluated after 13 days (100=total damage to plant; 0=no damage to plant); for plant injury at 62.5 g/ha: 62.5 g ai/ha; for plant injury at 62.5 g/ha / plant injury at 250 g/ha: evaluated after 13 days, 100=total damage to plant, 0=no damage to plant; for plant injury at 250 g/ha: 250 g ai/ha
Outline: as §2

[9] = tested on: giant foxtail (Setaria faberi); assay: Test G Post-Emergence Protocol; conditions: Setaria faberi, post-emergence, 312 h, read-out: Foxtail, Giant damage rating; for pest or weed control at 15.625 g/ha: 15.625 g ai/ha, evaluated after 13 days (100=total damage to plant; 0=no damage to plant); for pest or weed control at 62.5 g/ha: 62.5 g ai/ha; for pest or weed control at 62.5 g/ha / pest or weed control at 250 g/ha: evaluated after 13 days, 100=total damage to plant, 0=no damage to plant; for pest or weed control at 250 g/ha: 250 g ai/ha
Outline: as §2

[10] = tested on: ivy-leaved morning glory (Ipomoea hederacea); assay: Test G Post-Emergence Protocol; conditions: Ipomoea, post-emergence, 312 h, read-out: Morningglory, Ivy-leaved damage rating; for pest or weed control at 15.625 g/ha: 15.625 g ai/ha, evaluated after 13 days (100=total damage to plant; 0=no damage to plant); for pest or weed control at 62.5 g/ha: 62.5 g ai/ha; for pest or weed control at 62.5 g/ha / pest or weed control at 250 g/ha: evaluated after 13 days, 100=total damage to plant, 0=no damage to plant; for pest or weed control at 250 g/ha: 250 g ai/ha
Outline: as §2

[11] = tested on: redroot pigweed (Amaranthus retroflexus); assay: Test G Post-Emergence Protocol; conditions: Amaranthus retroflexus, post-emergence, 312 h, read-out: Pigweed, Redroot damage rating; for pest or weed control at 15.625 g/ha: 15.625 g ai/ha, evaluated after 13 days (100=total damage to plant; 0=no damage to plant); for pest or weed control at 62.5 g/ha: 62.5 g ai/ha; for pest or weed control at 62.5 g/ha / pest or weed control at 250 g/ha: evaluated after 13 days, 100=total damage to plant, 0=no damage to plant; for pest or weed control at 250 g/ha: 250 g ai/ha
Outline: as §2

[12] = tested on: velvetleaf (Abutilon theophrasti); assay: Test G Post-Emergence Protocol; conditions: Abutilon theophrasti, post-emergence, 312 h, read-out: Velvetleaf damage rating; for pest or weed control at 15.625 g/ha: 15.625 g ai/ha, evaluated after 13 days (100=total damage to plant; 0=no damage to plant); for pest or weed control at 62.5 g/ha: 62.5 g ai/ha; for pest or weed control at 62.5 g/ha / pest or weed control at 250 g/ha: evaluated after 13 days, 100=total damage to plant, 0=no damage to plant; for pest or weed control at 250 g/ha: 250 g ai/ha
Outline: as §2

SMILES: COC(=O)c1cc([C@H]2CN(C)C(=O)[C@@H]2C(=O)Nc2cccc(F)c2F)ccc1C (racemic) [Compound 1683]
- pest or weed control at 15.625 g/ha [1]: 60%
- pest or weed control at 62.5 g/ha [1]: 70%
- pest or weed control at 250 g/ha [1]: 80%
- plant injury at 15.625 g/ha (corn (Zea mays) [2]): 30%
- plant injury at 62.5 g/ha (corn (Zea mays) [2]): 50%
- plant injury at 250 g/ha (corn (Zea mays) [2]): 80%
- pest or weed control at 15.625 g/ha [3]: 70%
- pest or weed control at 62.5 g/ha [3]: 80%
- pest or weed control at 250 g/ha [3]: 90%
- pest or weed control at 15.625 g/ha [4]: 0%
- pest or weed control at 62.5 g/ha [4]: 10%
- pest or weed control at 250 g/ha [4]: 60%
- pest or weed control at 15.625 g/ha [5]: 20%
- pest or weed control at 62.5 g/ha [5]: 20%
- pest or weed control at 250 g/ha [5]: 20%
- pest or weed control at 15.625 g/ha [6]: 0%
- pest or weed control at 62.5 g/ha [6]: 10%
- pest or weed control at 250 g/ha [6]: 30%
- pest or weed control at 15.625 g/ha [7]: 70%
- pest or weed control at 62.5 g/ha [7]: 70%
- pest or weed control at 250 g/ha [7]: 80%
- plant injury at 15.625 g/ha (corn (Zea mays) [8]): 20%
- plant injury at 62.5 g/ha (corn (Zea mays) [8]): 40%
- plant injury at 250 g/ha (corn (Zea mays) [8]): 80%
- pest or weed control at 15.625 g/ha [9]: 70%
- pest or weed control at 62.5 g/ha [9]: 80%
- pest or weed control at 250 g/ha [9]: 80%
- pest or weed control at 15.625 g/ha [10]: 30%
- pest or weed control at 62.5 g/ha [10]: 30%
- pest or weed control at 250 g/ha [10]: 50%
- pest or weed control at 15.625 g/ha [11]: 30%
- pest or weed control at 62.5 g/ha [11]: 10%
- pest or weed control at 250 g/ha [11]: 40%
- pest or weed control at 15.625 g/ha [12]: 0%
- pest or weed control at 62.5 g/ha [12]: 20%
- pest or weed control at 250 g/ha [12]: 50%

SMILES: CN1C[C@H](c2ccc(C(F)F)cc2)[C@@H](C(=O)Nc2cccc(F)c2F)C1=O (racemic) [Compound 1728]
- pest or weed control at 15.625 g/ha [1]: 70%
- pest or weed control at 62.5 g/ha [1]: 90%
- pest or weed control at 250 g/ha [1]: 90%
- plant injury at 15.625 g/ha (corn (Zea mays) [2]): 30%
- plant injury at 62.5 g/ha (corn (Zea mays) [2]): 80%
- plant injury at 250 g/ha (corn (Zea mays) [2]): 80%
- pest or weed control at 15.625 g/ha [3]: 80%
- pest or weed control at 62.5 g/ha [3]: 90%
- pest or weed control at 250 g/ha [3]: 90%
- pest or weed control at 15.625 g/ha [4]: 0%
- pest or weed control at 62.5 g/ha [4]: 30%
- pest or weed control at 250 g/ha [4]: 80%
- pest or weed control at 15.625 g/ha [5]: 30%
- pest or weed control at 62.5 g/ha [5]: 80%
- pest or weed control at 250 g/ha [5]: 80%
- pest or weed control at 15.625 g/ha [6]: 40%
- pest or weed control at 62.5 g/ha [6]: 60%
- pest or weed control at 250 g/ha [6]: 80%
- pest or weed control at 15.625 g/ha [7]: 70%
- pest or weed control at 62.5 g/ha [7]: 80%
- pest or weed control at 250 g/ha [7]: 80%
- plant injury at 15.625 g/ha (corn (Zea mays) [8]): 60%
- plant injury at 62.5 g/ha (corn (Zea mays) [8]): 60%
- plant injury at 250 g/ha (corn (Zea mays) [8]): 80%
- pest or weed control at 15.625 g/ha [9]: 80%
- pest or weed control at 62.5 g/ha [9]: 80%
- pest or weed control at 250 g/ha [9]: 80%
- pest or weed control at 15.625 g/ha [10]: 0%
- pest or weed control at 62.5 g/ha [10]: 20%
- pest or weed control at 250 g/ha [10]: 70%
- pest or weed control at 15.625 g/ha [11]: 20%
- pest or weed control at 62.5 g/ha [11]: 0%
- pest or weed control at 250 g/ha [11]: 80%
- pest or weed control at 15.625 g/ha [12]: 30%
- pest or weed control at 62.5 g/ha [12]: 30%
- pest or weed control at 250 g/ha [12]: 60%

— patent US12077503B2, “Substituted cyclic amides and their use as herbicides” (FMC CORPORATION, priority 2015, dated 2024)
